Assay results as given in patent US20090012595A1, “Therapeutic Drug-Eluting Endoluminal Covering” (priority 2003, published 2009).

Assay: Paclitaxel release from films into octanol/PBS or octanol/water, 232 nm
Assay type: physicochemical
Conditions: PBS versus water, 0, 4 and 72 hours, 37° C., continuous shaking
Method: Paclitaxel release—Small samples (circular discs, 8 mm) of the Paclitaxel films were placed in a solution of octanol and phosphate buffered saline (PBS) or water at a proportion of 5 ml Octanol and 10 ml PBS (or water). The solution, including the film disc, was shaken continuously at 37° C. for several days. The amount of Paclitaxel in the octanol phase of the solution was measured using a spectrophotometer at 232 nm. Measurements were carried out periodically and the amount of drug released was normalized to baseline values for control films containing no drug.

Profile of drug release from films: significantly faster than in water
SMILES: CC(=O)O[C@H]1C(=O)[C@@]2(C)[C@H]([C@H](OC(=O)c3ccccc3)[C@]3(O)C[C@H](OC(=O)[C@H](O)[C@@H](NC(=O)c4ccccc4)c4ccccc4)C(C)=C1C3(C)C)[C@]1(OC(C)=O)CO[C@@H]1C[C@@H]2O [paclitaxel]
